Source: publication PMC7982320 (Pharmacology Research & Perspectives, 2021)
Each block holds one compound with its values, some of them ahead of it.

How the values were obtained:
[1] = cited from earlier work
[2] = healthy male subjects, single oral dose of 60 mg 14C‐DFZ; cited from earlier work
CYP1A2 = test: in vitro; assay type: in vitro ADME, human; conditions: human
CYP2B6 = test: in vitro; assay type: in vitro ADME, human; conditions: human, 10 µM
CYP3A4 = test: in vitro; conditions: human
[3] = CYP1A2 enzyme activity fold induction, donor one
[4] = CYP1A2 enzyme activity fold induction, donor three
[5] = CYP1A2 enzyme activity fold induction, donor two
[6] = CYP1A2 mRNA fold induction, donor one
[7] = CYP1A2 mRNA fold induction, donor three
[8] = CYP1A2 mRNA fold induction, donor two

Compound: CC1=N[C@]2(C(=O)CO)[C@@H](C[C@H]3[C@@H]4CCC5=CC(=O)C=C[C@]5(C)[C@H]4[C@@H](O)C[C@@]32C)O1 [21‐desDFZ, 21‐desacetyl deflazacort]
protein binding in human plasma [1]: about 40%
share of 0–24 h plasma levels of total radioactivity [2]: 33%

fold induction at 48 h, 10 µM (CYP1A2; [3]): 0.744
fold induction at 48 h, 10 µM (CYP1A2; [4]): 0.996
fold induction at 48 h, 10 µM (CYP1A2; [5]): 0.805
fold induction at 48 h, 10 µM (CYP1A2; [6]): 0.941
fold induction at 48 h, 10 µM (CYP1A2; [7]): 0.898
fold induction at 48 h, 10 µM (CYP1A2; [8]): 1.12
fold induction at 48 h, 10 µM (CYP2B6; CYP2B6 enzyme activity fold induction, donor one): 0.719
fold induction at 48 h, 10 µM (CYP2B6; CYP2B6 enzyme activity fold induction, donor three): 0.875
fold induction at 48 h, 10 µM (CYP2B6; CYP2B6 enzyme activity fold induction, donor two): 1.05
fold induction at 48 h, 10 µM (CYP2B6; CYP2B6 mRNA fold induction, donor one): 0.965
fold induction at 48 h, 10 µM (CYP2B6; CYP2B6 mRNA fold induction, donor three): 0.989
fold induction at 48 h, 10 µM (CYP2B6; CYP2B6 mRNA fold induction, donor two): 0.685
fold induction at 48 h, 10 µM (CYP3A4; CYP3A4 enzyme activity fold induction, donor one): 0.881
fold induction at 48 h, 10 µM (CYP3A4; CYP3A4 enzyme activity fold induction, donor three): 1.44
fold induction at 48 h, 10 µM (CYP3A4; CYP3A4 enzyme activity fold induction, donor two): 0.861
fold induction at 48 h, 10 µM (CYP3A4; CYP3A4 mRNA fold induction, donor one): 0.612
fold induction at 48 h, 10 µM (CYP3A4; CYP3A4 mRNA fold induction, donor three): 1.18
fold induction at 48 h, 10 µM (CYP3A4; CYP3A4 mRNA fold induction, donor two): 0.591
Compound: COc1c(N2CCNC(C)C2)c(F)cc2c(=O)c(C(=O)O)cn(C3CC3)c12 (centres unmarked) [Gatifloxacin, reference compound]

fold induction at 48 h, 100 µM (CYP1A2; [3]): 3.55
fold induction at 48 h, 100 µM (CYP1A2; [4]): 8.36
fold induction at 48 h, 100 µM (CYP1A2; [5]): 5.48
fold induction at 48 h, 100 µM (CYP1A2; [6]): 39.6
fold induction at 48 h, 100 µM (CYP1A2; [7]): 40.5
fold induction at 48 h, 100 µM (CYP1A2; [8]): 34.8
Compound: COc1ccc2[nH]c([S+]([O-])Cc3ncc(C)c(OC)c3C)nc2c1 (centres unmarked) [Omeprazole, reference compound]
